Test results: patent US5514814A, “Pyrrolinone-based compounds” (Trustees of the University of Pennsylvania, priority 1994, dated 1996)

Target: T1, HIV-1 protease (Human immunodeficiency virus type 1 group M subtype B, UniProt P12497)
T1 construct: HIV-1 protease purified generally according to Heimbach; made in house
Experiment: Inhibition of purified HIV-1 protease (IC50)
Assay type: biochemical
Details: HIV-1 protease purified generally according to Heimbach, et al.
Protocol: The extent to which the compounds of the invention for inhibit and prevent the spread of HIV-1 protease was determined generally according to the methods disclosed by Thompson, et al., J. Med. Chem. 1992, 35, 1685. IC50 and CIC95 values were determined using HIV-1 protease purified generally according to Heimbach, et al., Biochem. Biophys. Res. Commun. 1989, 164, 955.

SMILES | IC50 [nM]
CC(C)C[C@@]1(C2=CN[C@@](Cc3ccccc3)(C[C@H](O)[C@H](Cc3ccccc3)NC(=O)O[C@H]3CCOC3)C2=O)NC=C([C@@H](Cc2ccccc2)C(N)=O)C1=O [(49)] | 1.3
CC(C)C[C@@]1(C2=CN[C@@](Cc3ccccc3)(C[C@H](O)[C@H](Cc3ccccc3)NC(=O)O[C@H]3CCOC3)C2=O)NC=C([C@@H](Cc2ccccc2)C(=O)NC(C)(C)C)C1=O [(53)] | 3.3
COC(=O)[C@H](Cc1ccccc1)C1=CN[C@@](CC(C)C)(C2=CN[C@@](Cc3ccccc3)(C[C@H](O)[C@H](Cc3ccccc3)NC(=O)O[C@H]3CCOC3)C2=O)C1=O [(58)] | 2
COC(=O)[C@H](Cc1ccccc1)C1=CN[C@@](CC(C)C)(C2=CN[C@@](Cc3ccccc3)(C[C@H](O)[C@H](Cc3ccccc3)NC(=O)OC(C)(C)C)C2=O)C1=O [(59)] | 37
CC(C)C[C@@]1(C2=CN[C@@](Cc3ccccc3)(C[C@H](O)[C@H](Cc3ccccc3)NC(=O)OC(C)(C)C)C2=O)NC=C([C@@H](Cc2ccccc2)C(=O)NC(C)(C)C)C1=O [(54)] | 48
O=C(N[C@@H](Cc1ccccc1)[C@@H](O)C[C@]1(Cc2ccccc2)NC=C([C@H]2c3ccccc3C[C@H]2O)C1=O)O[C@H]1CCOC1 [(67)] | 2
CC(C)CC1(C2=CNC(Cc3ccccc3)(CC(O)C(Cc3ccccc3)NC(=O)OC(C)(C)C)C2=O)NC=C(C(Cc2ccccc2)C(N)=O)C1=O (stereo not shown) [(11)] | 10
CC(C)(C)OC(=O)N[C@@H](Cc1ccccc1)[C@@H](O)C[C@]1(Cc2ccccc2)NC=C([C@H]2c3ccccc3C[C@H]2O)C1=O [(68)] | 11.9

System: renin
Experiment: Effective renin inhibitor at stated concentration
Assay type: biochemical
Details: not given

SMILES | found to act as an effective renin inhibitor at (concentration) [nM]
CC(C)=CCC1(Cc2ccccc2)NC=C(C(CC(C)C)C(=O)NC(CC2CCCCC2)C(O)C(O)CC(C)C)C1=O [Structure (10a), 5(S)-prenyl-(5-benzyl)pyrrolin-4-one-3!-2(R)-isobutylacetate-1-amino-1(S)-cyclohexylmethyl-2(R)3 3 (S)-dihydroxy-5-methylhexane!-amide] | 700

Target: HIV1 (Human immunodeficiency virus type 1 (NEW YORK-5 ISOLATE), UniProt P12497)
Experiment: Effective HIV1 inhibitor at stated concentration
Assay type: biochemical
Details: not given

found to act as effective HIV1 inhibitor at (concentration) [µM] | SMILES
3.5 | CC(C)=CCC1(Cc2ccccc2)NC=C(C2(CC(C)C)NC=C(C(CC3CCCCC3)C(O)C(O)CC(C)C)C2=O)C1=O (stereo not shown) [Structure (9a)]
